{"source": "patent US20200361871A1", "about": "(Enterprise Therapeutics Ltd., priority 2018, published 2020)", "target": "human TMEM16A (TMEM16Aabc variant) (Homo sapiens, UniProt Q5XXA6, DEL476-501, form not given)", "sequence (Q5XXA6 with tags, fused parts or gaps DEL476-501)": "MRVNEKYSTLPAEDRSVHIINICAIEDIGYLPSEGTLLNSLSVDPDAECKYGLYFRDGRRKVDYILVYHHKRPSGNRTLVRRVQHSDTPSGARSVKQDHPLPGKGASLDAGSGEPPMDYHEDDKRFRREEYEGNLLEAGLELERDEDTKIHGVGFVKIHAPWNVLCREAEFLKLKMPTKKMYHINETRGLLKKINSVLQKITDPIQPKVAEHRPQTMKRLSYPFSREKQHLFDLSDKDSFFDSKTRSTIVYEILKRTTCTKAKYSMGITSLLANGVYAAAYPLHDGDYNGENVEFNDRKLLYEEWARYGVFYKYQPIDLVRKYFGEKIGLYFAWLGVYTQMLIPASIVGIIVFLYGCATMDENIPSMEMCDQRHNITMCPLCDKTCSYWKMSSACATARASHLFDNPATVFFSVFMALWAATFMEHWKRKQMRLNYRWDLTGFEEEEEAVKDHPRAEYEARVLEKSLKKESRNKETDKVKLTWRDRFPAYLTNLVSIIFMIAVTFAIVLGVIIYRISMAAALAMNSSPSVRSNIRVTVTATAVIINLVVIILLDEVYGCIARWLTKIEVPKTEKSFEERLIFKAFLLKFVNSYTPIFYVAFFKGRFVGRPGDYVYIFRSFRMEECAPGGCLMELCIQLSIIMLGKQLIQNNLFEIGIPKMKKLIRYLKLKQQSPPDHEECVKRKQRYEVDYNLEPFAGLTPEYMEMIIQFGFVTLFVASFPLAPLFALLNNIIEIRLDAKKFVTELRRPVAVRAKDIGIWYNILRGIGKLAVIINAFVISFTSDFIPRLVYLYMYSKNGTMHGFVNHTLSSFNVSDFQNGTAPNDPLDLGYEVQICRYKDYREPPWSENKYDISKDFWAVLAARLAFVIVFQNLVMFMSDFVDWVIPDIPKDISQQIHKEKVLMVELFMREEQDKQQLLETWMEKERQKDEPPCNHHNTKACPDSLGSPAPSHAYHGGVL", "experiment": "Automated whole-cell patch clamp (Qpatch) TMEM16A potentiator assay in FRT cells stably expressing human TMEM16A", "type": "cell-based", "details": "for % Potentiation @ 3.33 μM Avg: 3.33 μM solution of test compound, percentage increase of baseline TMEM16A current; for EC50: calculated EC50, Qpatch TMEM16A current at +70 mV", "source_text": "FIG. 1 is an example trace from a whole-cell patch clamp (Qpatch) TMEM16A potentiator assay as used in Biological Example 95 and illustrates the methodology used in the assay. In FIG. 1: S is Saline; V is Vehicle; #1 is Test Compound concentration #1; #2 is Test Compound concentration 2; #3 is Test Compound concentration 3; #4 is Test Compound concentration 4; #5 is Test Compound concentration #5; and R is Reference. The arrow in column V represents the baseline current, IBL. The arrows in each of the columns #1, #2, #3, #4, #5 and R represent I#[1], I#[2], I#[3], I#[4], I#[5] and I[Ref], which are the peak currents during the incubation periods for test compounds concentrations #1 to #5 and the Reference.\nFisher rat thyroid (FRT) cells stably expressing human TMEM16A (TMEM16Aabc variant; Dr Luis Galietta, Insituto Giannina, Italy) were cultured in T-75 flasks in Hams F-12 media with Coon's modification (Sigma) supplemented with 10% (v/v) foetal bovine serum, penicillin-streptomycin (10,000 U/mL/10000 μg/mL), G-418 (750 μg/mL), L-glutamine (2 mM) and sodium bicarbonate solution (7.5% v/v). At ˜90% confluence cells were harvested for experiments by detachment with a 2:1 (v/v) mixture of Detachin (BMS Biotechnology) and 0.25% (w/v) trypsin-EDTA. Cells were diluted to a density of 3.5-4.5×10^6 cells/mL with media consisting of CHO-S-SFM II (Sigma), 25 mM HEPES (Sigma) and Soy bean trypsin inhibitor (Sigma).\nFRT-TMEM16A cells were whole-cell patch clamped using an automated planar patch clamp system (Qpatch, Sophion). Briefly, once high resistance (GOhm) seals were established between the cells and the planar recording array the patch was ruptured using suction pulses to establish the whole-cell recording configuration of the patch clamp technique. The assay employed the following solutions (all reagents Sigma): Intracellular solution (mM): N-methyl-D-glucamine 130, CaCl2 18.2, MgCl2 1, HEPES 10, EGTA 10, BAPTA 20, Mg-ATP 2, pH 7.25, 325 mOsm with sucrose.\nExtracellular solution (mM): N-methyl-D-glucamine 130, CaCl2 2, MgCl2 1, HEPES 10, pH 7.3, 320 mOsm with sucrose.\nThe intracellular solution buffers intracellular calcium at levels required to give ˜20% activation of the maximal TMEM16A mediated current (EC20 for calcium ions). Cells were voltage clamped at a holding potential of −70 mV and a combined voltage step (to +70 mV)/ramp (−90 my to +90 mV) was applied at 0.05 Hz. After a period of current stabilisation test compounds, solubilised in 100% (v/v) DMSO and subsequently diluted into extracellular solution, were applied to generate a cumulative concentration response curve. Each concentration of test compound was incubated for 5 minutes before addition of the next concentration. After the final concentration was tested a supramaximal concentration of either a known active positive modulator or the TMEM16A inhibitor, CaCCinhA01 (Del La Fuente et al, 2008) was added to define the upper and lower limits of the assay.\nCompound activity was quantified by measuring the increase in current upon compound addition and expressing this as a percentage increase of baseline TMEM16A current level. Percentage increases in current were determined for each concentration and the data plotted as a function of concentration using either the Qpatch software or Graphpad Prism v6.05 providing the concentration which gave 50% of its maximal effect (EC50) and maximum efficacy (percentage of baseline increase).\nIn FIG. 1, IBL equals baseline current, I[#1] equals the peak current during test compound concentration 1 incubation period and so on.\nPeak TMEM16A current at +70 mV was plotted as a function of time over the assay period. Baseline current (IBL) was measured after a period of stabilisation. The increase in current for each compound addition was determined by taking the peak current during the incubation period and subtracting the current from the previous recording period and then expressing this as a percentage of the baseline current. […]", "data": [{"smiles": "CC(C#N)(CO)NC(=O)c1cc(NC(=O)Cc2cc(Cl)ccc2O)ccn1", "note": "(racemic) [Example 46, 4-[[2-(5-Chloro-2-hydroxy-phenyl)acetyl]amino]-N-(1-cyano-2-hydroxy-1-methyl-ethyl)pyridine-2-carboxamide]", "values": [{"measurement": "% Potentiation @ 3.33 μM Avg", "result": 275, "unit": "%"}, {"measurement": "EC50", "result": 250, "unit": "nM"}]}, {"smiles": "O=C(Cc1cc(F)ccc1O)Nc1ccnc(C(=O)NC23CCC(F)(C2)C3)c1", "note": "[Example 81.4, N-(4-Fluoro-1-bicyclo[2.1.1]hexanyl)-4-[[2-(5-fluoro-2-hydroxy-phenyl)acetyl]amino] pyridine-2-carboxamide]", "values": [{"measurement": "% Potentiation @ 3.33 μM Avg", "result": 122, "unit": "%"}, {"measurement": "EC50", "result": 40, "unit": "nM"}]}, {"smiles": "O=C(Cc1cc(Cl)ccc1O)Nc1ccnc(C(=O)NCc2ccccc2O)c1", "note": "[Example 32.5, 4-[[2-(5-Chloro-2-hydroxy-phenyl)acetyl]amino]-N-[(2-hydroxyphenyl)methyl]pyridine-2-carboxamide]", "values": [{"measurement": "% Potentiation @ 3.33 μM Avg", "result": 177, "unit": "%"}, {"measurement": "EC50", "result": 590, "unit": "nM"}]}, {"smiles": "Cn1nc(-c2ccccc2)cc1C(=O)Nc1ccnc(C(=O)NC(C)(C)C#N)c1", "note": "[Example 83.22, N-(1-Cyano-1-methyl-ethyl)-4-[(2-methyl-5-phenyl-pyrazole-3-carbonyl)amino]pyridine-2-carboxamide]", "values": [{"measurement": "% Potentiation @ 3.33 μM Avg", "result": 85, "unit": "%"}]}, {"smiles": "CC(C)(C)NC(=O)c1cc(NC(=O)C2CCCCc3ccccc32)ccn1", "note": "(centres unmarked) [Example 5.26, N-tert-Butyl-4-(6,7,8,9-tetrahydro-5H-benzo[7]annulene-5-carbonylamino) pyridine-2-carboxamide]", "values": [{"measurement": "% Potentiation @ 3.33 μM Avg", "result": 110, "unit": "%"}, {"measurement": "EC50", "result": 1200, "unit": "nM"}]}, {"smiles": "CC(C)(C#N)NC(=O)c1cc(NC(=O)c2cccc3ncsc23)ccn1", "note": "[Example 83.30, N-[2-[(1-Cyano-1-methyl-ethyl)carbamoyl]-4-pyridyl]-1,3-benzothiazole-7-carboxamide]", "values": [{"measurement": "% Potentiation @ 3.33 μM Avg", "result": 93, "unit": "%"}]}, {"smiles": "CC(C)(C)NC(=O)c1cc(NC(=O)NCc2ccc(O)cc2)ccn1", "note": "[Example 65.4, N-tert-Butyl-4-[(4-hydroxyphenyl)methylcarbamoylamino]pyridine-2-carboxamide]", "values": [{"measurement": "% Potentiation @ 3.33 μM Avg", "result": 10, "unit": "%"}]}, {"smiles": "CC(C)Cc1cc(C(=O)Nc2ccnc(C(=O)NC(C)(C)C#N)c2)on1", "note": "[Example 83.9, N-[2-[(1-Cyano-1-methyl-ethyl)carbamoyl]-4-pyridyl]-3-isobutyl-isoxazole-5-carboxamide]", "values": [{"measurement": "% Potentiation @ 3.33 μM Avg", "result": 18, "unit": "%"}]}, {"smiles": "N#CC1(NC(=O)c2cc(NC(=O)Cc3cc(Cl)ccc3O)ccn2)COC1", "note": "[Example 47.3, 4-[[2-(5-Chloro-2-hydroxy-phenyl)acetyl]amino]-N-(3-cyanooxetan-3-yl)pyridine-2-carboxamide]", "values": [{"measurement": "% Potentiation @ 3.33 μM Avg", "result": 237, "unit": "%"}, {"measurement": "EC50", "result": 350, "unit": "nM"}]}, {"smiles": "O=C(Cc1cc(Cl)ccc1O)Nc1cccc(C(=O)NC2CCOCC2)c1", "note": "[Example 7.4, 3-[[2-(5-Chloro-2-hydroxy-phenyl)acetyl]amino]-N-tetrahydropyran-4-yl-benzamide]", "values": [{"measurement": "% Potentiation @ 3.33 μM Avg", "result": 52, "unit": "%"}, {"measurement": "EC50", "result": 650, "unit": "nM"}]}, {"smiles": "O=C(Cc1cc(Cl)ccc1O)Nc1ccnc(C(=O)N[C@@]2(CO)CCOC2)c1", "note": "(single isomer, unassigned) [Example 35a, 4-[[2-(5-Chloro-2-hydroxy-phenyl)acetyl]amino]-N-[(3R)-3-(hydroxymethyl)tetrahydrofuran-3-yl]pyridine-2-carboxamide or 4-[[2-(5-chloro-2-hydroxy-phenyl)acetyl]amino]-N-[(3S)-3-(hydroxymethyl)tetrahydrofuran-3-yl]pyridine-2-carboxamide]", "values": [{"measurement": "% Potentiation @ 3.33 μM Avg", "result": 137, "unit": "%"}, {"measurement": "EC50", "result": 100, "unit": "nM"}]}, {"smiles": "CC(C)(C)NC(=O)c1ccc(F)c(NC(=O)Cc2cc(Cl)ccc2O)c1", "note": "[Example 9, N-tert-Butyl-3-[[2-(5-chloro-2-hydroxy-phenyl)acetyl]amino]-4-fluoro-benzamide]", "values": [{"measurement": "% Potentiation @ 3.33 μM Avg", "result": 149, "unit": "%"}, {"measurement": "EC50", "result": 230, "unit": "nM"}]}, {"smiles": "O=C(Cc1cc(Cl)ccc1O)Nc1ccnc(C(=O)N[C@H]2CCCC[C@H]2CO)c1", "note": "[Example 35.2, 4-[[2-(5-Chloro-2-hydroxy-phenyl)acetyl]amino]-N-[(1s,2r)-2-(hydroxymethyl)cyclohexyl]pyridine-2-carboxamide]", "values": [{"measurement": "% Potentiation @ 3.33 μM Avg", "result": 300, "unit": "%"}, {"measurement": "EC50", "result": 610, "unit": "nM"}]}, {"smiles": "CC(C)(C)NC(=O)c1cccc(NC(=O)Cc2cc(Cl)ccc2O)c1", "note": "[Example 2, N-tert-Butyl-3-[[2-(5-chloro-2-hydroxy-phenyl)acetyl]amino]benzamide]", "values": [{"measurement": "% Potentiation @ 3.33 μM Avg", "result": 262, "unit": "%"}, {"measurement": "EC50", "result": 270, "unit": "nM"}]}, {"smiles": "CC(C)(C)NC(=O)c1cc(NC(=O)Cc2cc(Cl)c(CN3CCCC3)cc2O)ccn1", "note": "[Example 27, N-tert-Butyl-4-[[2-[5-chloro-2-hydroxy-4-(pyrrolidin-1-ylmethyl)phenyl]acetyl]amino]pyridine-2-carboxamide]", "values": [{"measurement": "% Potentiation @ 3.33 μM Avg", "result": 90, "unit": "%"}]}, {"smiles": "CC(C)(C#N)NC(=O)c1cc(NC(=O)c2cnn(Cc3ccccc3)c2)ccn1", "note": "[Example 83.21, 4-[(1-Benzylpyrazole-4-carbonyl)amino]-N-(1-cyano-1-methyl-ethyl)pyridine-2-carboxamide]", "values": [{"measurement": "% Potentiation @ 3.33 μM Avg", "result": 70, "unit": "%"}]}, {"smiles": "COc1ccc(COc2ccc(Cl)cc2CC(=O)Nc2ccnc(C(=O)NC(C)(C)C)c2)cc1", "note": "[Example 56, N-tert-Butyl-4-[[2-[5-chloro-2-[(4-methoxyphenyl)methoxy]phenyl]acetyl]amino]pyridine-2-carboxamide]", "values": [{"measurement": "% Potentiation @ 3.33 μM Avg", "result": 76, "unit": "%"}]}, {"smiles": "CC(C)(C)NC(=O)c1cc(NC(=O)Cc2ccc(O)c(Cl)c2)ccn1", "note": "[Example 5.21, N-tert-Butyl-4-[[2-(3-chloro-4-hydroxy-phenyl)acetyl]amino]pyridine-2-carboxamide]", "values": [{"measurement": "% Potentiation @ 3.33 μM Avg", "result": 172, "unit": "%"}, {"measurement": "EC50", "result": 510, "unit": "nM"}]}, {"smiles": "C#CC(C)(C)NC(=O)c1cc(NC(=O)Cc2ccc(C(F)(F)F)cc2O)ccn1", "note": "[Example 78.1, N-(1,1-Dimethylprop-2-ynyl)-4-[[2-[2-hydroxy-4-(trifluoromethyl)phenyl]acetyl]amino]pyridine-2-carboxamide]", "values": [{"measurement": "% Potentiation @ 3.33 μM Avg", "result": 238, "unit": "%"}, {"measurement": "EC50", "result": 50, "unit": "nM"}]}, {"smiles": "CC(C)(C)NC(=O)c1cc(NC(=O)Cc2ncccc2O)ccn1", "note": "[Example 19, N-tert-Butyl-4-[[2-(3-hydroxy-2-pyridyl)acetyl]amino]pyridine-2-carboxamide]", "values": [{"measurement": "% Potentiation @ 3.33 μM Avg", "result": 57, "unit": "%"}]}, {"smiles": "C#CC1(NC(=O)c2cc(NC(=O)Cc3cc(Cl)ccc3O)ccn2)CCCCC1", "note": "[Example 35.24, 4-[[2-(5-Chloro-2-hydroxy-phenyl)acetyl]amino]-N-(1-ethynylcyclohexyl)pyridine-2-carboxamide]", "values": [{"measurement": "% Potentiation @ 3.33 μM Avg", "result": 120, "unit": "%"}, {"measurement": "EC50", "result": 10, "unit": "nM"}]}, {"smiles": "C#CC(C)(C)NC(=O)c1cccc(NC(=O)Cc2cc(Cl)ccc2O)c1", "note": "[Example 74, 3-[[2-(5-Chloro-2-hydroxy-phenyl)acetyl]amino]-N-(1,1-dimethylprop-2-ynyl)benzamide]", "values": [{"measurement": "% Potentiation @ 3.33 μM Avg", "result": 337, "unit": "%"}, {"measurement": "EC50", "result": 180, "unit": "nM"}]}, {"smiles": "COC(=O)C1(NC(=O)c2cc(NC(=O)Cc3cc(Cl)ccc3O)ccn2)CCOCC1", "note": "[Example 47.2, Methyl 4-[[4-[[2-(5-chloro-2-hydroxy-phenyl)acetyl]amino]pyridine-2-carbonyl]amino]tetrahydropyran-4-carboxylate]", "values": [{"measurement": "% Potentiation @ 3.33 μM Avg", "result": 212, "unit": "%"}, {"measurement": "EC50", "result": 230, "unit": "nM"}]}, {"smiles": "N#CC1(NC(=O)c2cc(NC(=O)Cc3ccccc3Cl)ccn2)CC1", "note": "[Example 30.7, 4-[[2-(2-Chlorophenyl)acetyl]amino]-N-(1-cyanocyclopropyl)pyridine-2-carboxamide]", "values": [{"measurement": "% Potentiation @ 3.33 μM Avg", "result": 124, "unit": "%"}, {"measurement": "EC50", "result": 340, "unit": "nM"}]}, {"smiles": "CC(C)(C)NC(=O)c1cc(NC(=O)Cc2ccccc2C#N)ccn1", "note": "[Example 23.14, N-tert-Butyl-4-[[2-(2-cyanophenyl)acetyl]amino]pyridine-2-carboxamide]", "values": [{"measurement": "% Potentiation @ 3.33 μM Avg", "result": 33, "unit": "%"}]}]}
